Test results published in patent US20240058283A1, “THE MODE OF ACTION OF N-MeDCPA ON TRPC CHANNELS” (West Virginia University Board of Governors on Behalf of …, priority 2022, published 2024).

What was measured:
TRPC7 = biological target: T1, TRPC7 (Homo sapiens, UniProt Q9HCX4); experiment: Carbachol (Cch)-induced Sr2+ entry in Fura2-loaded HEK293 cells overexpressing TRPC7; type: cell-based; conditions: versus DAG-mediated activation, FIG. 2D, E
T1 construct: expressed in transfected cells; host or cells: HEK293 (transient transfection)
T1 sequence (Q9HCX4 1-862): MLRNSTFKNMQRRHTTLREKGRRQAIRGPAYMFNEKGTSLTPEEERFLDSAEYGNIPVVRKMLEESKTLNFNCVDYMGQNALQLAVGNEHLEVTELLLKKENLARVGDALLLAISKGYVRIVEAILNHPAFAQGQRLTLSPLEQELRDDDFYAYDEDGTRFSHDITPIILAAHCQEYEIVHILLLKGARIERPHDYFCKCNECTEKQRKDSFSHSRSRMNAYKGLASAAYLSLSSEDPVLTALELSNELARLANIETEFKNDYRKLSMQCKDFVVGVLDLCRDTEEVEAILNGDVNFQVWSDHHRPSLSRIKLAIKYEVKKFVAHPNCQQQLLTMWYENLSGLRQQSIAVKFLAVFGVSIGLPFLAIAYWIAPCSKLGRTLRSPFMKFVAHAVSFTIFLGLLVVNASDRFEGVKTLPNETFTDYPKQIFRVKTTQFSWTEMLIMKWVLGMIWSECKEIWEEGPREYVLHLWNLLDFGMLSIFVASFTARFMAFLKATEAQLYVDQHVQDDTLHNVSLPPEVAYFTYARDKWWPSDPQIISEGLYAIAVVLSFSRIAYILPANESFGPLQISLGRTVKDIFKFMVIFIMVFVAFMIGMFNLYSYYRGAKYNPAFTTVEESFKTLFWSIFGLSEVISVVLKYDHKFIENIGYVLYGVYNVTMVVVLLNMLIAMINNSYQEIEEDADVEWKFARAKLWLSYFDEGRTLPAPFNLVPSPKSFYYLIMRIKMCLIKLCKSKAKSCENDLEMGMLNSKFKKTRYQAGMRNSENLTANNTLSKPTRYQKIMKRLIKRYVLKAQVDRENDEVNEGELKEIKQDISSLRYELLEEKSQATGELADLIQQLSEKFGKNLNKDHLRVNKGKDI
Excerpt: Inhibition of GPCR-mediated TRPC activation. Since TRPC4 and TRPC5 are not activated by DAG, we utilized carbachol (Cch)-induced Sr^2+ entry to determine their sensitivity to ELP-004. Since Cch drives ER Ca^2+ release, Cch-induced Ca^2+ entry includes both store-operated and TRPC-mediated components. To specifically measure ion entry through TRPC channels, we took advantage of the lack of ion selectivity of TRPC channel and substituted Sr^2+ for Ca^2+ as previously described^7. As expected, Cch stimulated rapid ER Ca^2+ release immediately upon addition in both TRPC4- and TRPC5-expressing cells (FIG. 2A,B). The subsequent addition of Sr^2+ (3 mM) lead to a significant increase in Fura ratio with a substantially larger response in TRPC5-expressing than TRPC4-expressing cells. […] Therefore, we assessed inhibition of TRPC7 by ELP-004 using the Cch Sr^2+ assay (FIG. 2D, E). […]
TRPC activity assay—Cells grown on glass coverslips were incubated in a cation-safe buffer (107 mM NaCl, 7.2 mM KCl, 1.2 mM MgCl2, 11.5 mM Glucose, 20 mM HEPES-NaOH, 1 mM CaCl2), pH 7.2) and loaded with Fura2-acetoxymethylester (Fura2-AM; 2 μM) for 30 min at 24° C. as previously described^10,11. […] Ca^2+/Sr^2+ measurements were taken using a Leica DMI 6000B fluorescence microscope controlled by Slidebook software (Intelligent Imaging Innovations, Denver, CO). […]

rats = conditions: rat, in vivo
[1] = Metabolite formation in human liver S9; type: in vitro ADME; conditions: cofactors-fortified human liver S9, 37 degrees centigrade, 1 hour; LC-MS/MS
Description: Drug Synthesis—ELP-004 (N-MeDCPA) was synthesized as described in U.S. patent Ser. No. 10/682,320. […] Metabolites formed after incubations using either cofactors-fortified mouse or human liver S9 (mouse liver S9; human liver S9) at 37 degrees centigrade for 1 hour. The reaction was quenched by ultracentrifugation. The supernatant was analyzed using LC-MS/MS analysis using Accela LC (Thermo Scientific, Inc., San Jose, CA) coupled to an LTQ LX or to LTQ Orbitrap XL.
ELP-004 is N-(3,4-dichlorophenyl)-N-methylpropanamide. The core structure of ELP-004 is an aniline compound. Aniline compounds, generally, have a high risk of forming reactive metabolites. ELP-004 was specifically designed to preclude formation of reactive metabolites. Methylation of the amide nitrogen improves metabolic stability.

CCC(=O)N(C)c1ccc(Cl)c(Cl)c1 [ELP-004, N-(3,4-dichlorophenyl)-N-methylpropanamide]
increase in sensitivity to ELP-004 in the Cch Sr2+ assay (TRPC7): 3 order of magnitude
oral LD50 (rats): > 2.5 g/kg body weight
formation of reactive or toxic metabolites [1]: No reactive or toxic compounds were formed
